Results from PMC3804772, “Rational Design, Synthesis, and Biological Evaluation of Third Generation α-Noscapine Analogues as Potent Tubulin Binding Anti-Cancer Agents” (PLoS ONE, 2013).

Experiments:
tubulin = molecular target: T1, tubulin (Bos taurus, UniProt P81947+Q6B856); test: Tubulin binding assay (quenching of intrinsic tryptophan fluorescence); set-up: species or system bovine
T1 construct: Tubulin devoid of microtubule-associated proteins (MAPs) was purified from bovine brain; from tissue; host or cells: bovine brain
Experimental: Tubulin devoid of microtubule-associated proteins (MAPs) was purified from bovine brain by cycles of temperature-dependent polymerization and depolymerization as described previously followed by phosphocellulose chromatography. The concentration of the tubulin was determined by the method of Bradford using BSA as the standard. Purified tubulin was quickly frozen as drops in liquid nitrogen and stored at - 80 °C until used.
Noscapinoids quench the […] intrinsic tryptophan fluorescence of tubulin in a concentration-dependent fashion as described previously. This has allowed an easy method for measuring the tubulin-noscapinoids interactions. Briefly, the compounds 5a, 6a-j (0-200 µM) were incubated with 2 µM tubulin in PEM buffer (100 mM PIPES, pH 6.8, 3 mM MgSO4, and 1 mM EGTA) at 37 °C for 45 min. After incubation, the samples were excited at 295 nm. The relative intrinsic fluorescence intensity of the tubulin was then monitored in the absence and presence of the compound 5a, 6a-j using a Varian Cary Eclipse Fluorescence Spectrophotometer (Agilent Technologies, CA, USA). The emission readings were recorded at 335 nm. We used a 0.3 cm path-length cuvette to minimize the inner filter effects caused by the absorbance of the noscapinoids. In addition, the inner filter effects were corrected using a formula F corrected = F observed·antilog [(A ex + A em)/2], where A ex is the absorbance at the excitation wavelength and A em is the absorbance at the emission wavelength. The equilibrium dissociation constant (KD) was determined by the formula: 1/a = KD/[free ligand] + 1, where a is the fractional occupancy and [free ligand] is the concentration of free ligand. The fractional occupancy (a) was determined by the formula a = ΔF/ΔF max, where ΔF is the change in fluorescence intensity when tubulin and its ligand are in equilibrium and ΔF max is the value of maximum fluorescence change when tubulin is completely bound with its ligand. ΔF max was calculated by plotting 1/ΔF versus 1/ligand, using total ligand concentration as the first estimate of free ligand concentration. Three independent experiments were performed for each noscapinoid.

[1] = tested on: human lymphoblast cell line (CEM); test: In vitro cell proliferation assay (SRB), CEM; format: cell-based; details: 72 h, mean ± S.D.
Experimental: (§1) The cell proliferation assay was performed in 96-well plates as described previously. A panel of four cancer cell lines of different tissues of origins, namely: human lung adenocarcinoma epithelial cell line (A549), human lymphoblast cell line (CEM), human cervix cell line (HeLa) and human breast epithelial cell line (MCF-7) were studied. These cell lines were obtained from the National Repository of Animal Cell Culture, National Centre for Cell Sciences, Pune (NCCS), India. Briefly, 2 x10^3 cells were seeded in each well and were incubated with gradient concentrations of 5a, 6a-j compounds for 72 h. The cells were then fixed with 50% trichloroacetic acid and stained with 0.4% sulforhodamine B (SRB) dissolved in 1% acetic acid. Cells were then washed with1% acetic acid to remove excess (unbound) SRB. The protein-bound SRB was dissolved with 10 mM Tris base and the absorbance at 564 nm was determined using a SPECTRAmax PLUS 384 microplate spectrophotometer.

[2] = tested on: human breast epithelial cell line (MCF-7); test: In vitro cell proliferation assay (SRB), MCF-7; format: cell-based; details: MCF7, 72 h, mean ± S.D.
Experimental: as §1

[3] = tested on: human lung adenocarcinoma epithelial cell line (A549); test: In vitro cell proliferation assay (SRB), A549; format: cell-based; details: 72 h, mean ± S.D.
Experimental: as §1

[4] = tested on: human cervix cell line (HeLa); test: In vitro cell proliferation assay (SRB), HeLa; format: cell-based; details: 72 h, mean ± S.D.
Experimental: as §1

MCF-7 cells = test: Cell cycle analysis by flow cytometry (propidium iodide); format: cell-based, human; details: MCF-7, 25 µM
Experimental: The flow cytometric evaluation of the cell cycle status was performed as described previously. Briefly, cells (2 x 10^6) treated with the noscapinoids up to 72 h were centrifuged, washed twice with cold PBS, and fixed in 70% ethanol. Tubes containing the cell pellets were stored at 4 °C for minimum of 24 h. Cells were then centrifuged at 1000 x g for 10 min and the supernatant was discarded. The pellets were washed twice with 5 ml of PBS and then stained with 0.5 ml of propidium iodide (0.1% of Pl + 0.6% Triton-X in PBS) and 0.5 ml of RNase A (2 mg/ml) for 45 minutes in dark. Samples were then analyzed on a FACS Calibur flow cytometer ([…]).

T1 sequence (Q6B856 whole entry): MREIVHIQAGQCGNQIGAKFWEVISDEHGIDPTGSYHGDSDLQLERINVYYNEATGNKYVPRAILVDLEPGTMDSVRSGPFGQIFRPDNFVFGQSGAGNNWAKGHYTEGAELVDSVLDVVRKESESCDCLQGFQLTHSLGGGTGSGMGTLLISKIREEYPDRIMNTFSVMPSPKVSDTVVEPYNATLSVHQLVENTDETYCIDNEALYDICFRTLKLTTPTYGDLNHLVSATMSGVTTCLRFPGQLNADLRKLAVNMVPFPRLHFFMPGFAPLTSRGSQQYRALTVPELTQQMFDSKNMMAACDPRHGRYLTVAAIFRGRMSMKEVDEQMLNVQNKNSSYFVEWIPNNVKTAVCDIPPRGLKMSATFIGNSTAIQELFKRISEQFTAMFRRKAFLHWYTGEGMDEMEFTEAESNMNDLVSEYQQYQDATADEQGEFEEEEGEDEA
T1 sequence (P81947 whole entry): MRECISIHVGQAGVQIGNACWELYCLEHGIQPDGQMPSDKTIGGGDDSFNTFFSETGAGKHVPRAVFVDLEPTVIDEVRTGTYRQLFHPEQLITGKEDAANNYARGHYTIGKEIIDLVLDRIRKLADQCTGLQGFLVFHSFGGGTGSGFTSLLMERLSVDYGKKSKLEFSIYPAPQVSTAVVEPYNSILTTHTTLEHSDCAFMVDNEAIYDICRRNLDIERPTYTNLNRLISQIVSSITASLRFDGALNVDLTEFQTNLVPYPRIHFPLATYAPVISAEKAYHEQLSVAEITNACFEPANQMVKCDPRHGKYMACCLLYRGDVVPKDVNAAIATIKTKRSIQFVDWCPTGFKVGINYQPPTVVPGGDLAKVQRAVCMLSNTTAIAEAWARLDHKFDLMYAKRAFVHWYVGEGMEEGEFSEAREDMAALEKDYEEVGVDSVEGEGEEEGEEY

SMILES | Kd (tubulin; 2 µM tubulin, PEM buffer pH 6.8, 37 °C, 45 min, mean ± S.D.) [µM] | Experimental ΔGbind (tubulin; calculated from KD, ΔGbind = RT ln KD, T = 298 K) [kcal/mol] | IC50 [2] [µM] | IC50 [3] [µM] | IC50 [4] [µM] | melting point [°C] | IC50 [1] [µM] | Cell cycle parameters % G0/G1, 24 hours (MCF-7 cells) [%] | Cell cycle parameters % G2/M, 24 hours (MCF-7 cells) [%] | Cell cycle parameters % S, 24 hours (MCF-7 cells) [%] | Cell cycle parameters % Sub-G1, 24 hours (MCF-7 cells) [%] | Cell cycle parameters % G0/G1, 72 hours (MCF-7 cells) [%] | Cell cycle parameters % G2/M, 72 hours (MCF-7 cells) [%] | Cell cycle parameters % S, 72 hours (MCF-7 cells) [%] | Cell cycle parameters % Sub-G1, 72 hours (MCF-7 cells) [%]
COc1ccc2c(c1OC)C(=O)O[C@@H]2[C@H]1c2c(cc3c(c2OC)OCO3)CCN1Cc1ccc(Br)cc1 [Compound 6b, 5(S)-3-((R)-6-(4-bromobenzyl)-4-methoxy-5,6,7,8-tetrahydro-[1,3]dioxolo[4,5-g]isoquinolin-5-yl)-6,7-dimethoxyisobenzofuran-1(3H)-one] |  |  | 34.1 ± 1.6 | 42.4 ± 2.3 | 21.2 ± 2.1 | 76 | 9 ± 0.4 | 19.42 | 64.42 | 4.16 | 7.37 | 11.38 | 35.84 | 7.53 | 43.18
COc1ccc(CN2CCc3cc4c(c(OC)c3[C@@H]2[C@H]2OC(=O)c3c2ccc(OC)c3OC)OCO4)cc1 [Compound 6d, (S)-6,7-dimethoxy-3-((R)-4-methoxy-6-(4-methoxybenzyl)-5,6,7,8-tetrahydro[1,3]dioxolo[4,5-g]isoquinolin-5-yl)isobenzofuran-1(3H)-one] |  |  | 28.7 ± 0.8 | 33.5 ± 1.7 | 17.9 ± 0.9 | 66 | 7.7 ± 0.3 | 22.73 | 59.41 | 4.62 | 7.27 | 8.29 | 36.18 | 7.83 | 45.38
COc1ccc2c(c1OC)C(=O)O[C@@H]2[C@H]1c2c(cc3c(c2OC)OCO3)CCN1Cc1cccc(Cl)c1 [Compound 6e, (S)-3-((R)-6-(3-chlorobenzyl)-4-methoxy-5,6,7,8-tetrahydro-[1,3]dioxolo[4,5-g]isoquinolin-5-yl)-6,7-dimethoxyisobenzofuran-1(3H)-one] |  |  | 27.8 ± 1.3 | 32.1 ± 1.6 | 17.3 ± 0.7 | 62 | 7.5 ± 0.6 | 12.84 | 68.42 | 4.57 | 8.17 | 7.02 | 38.52 | 6.83 | 45.42

Second part, led by results:

Kd (tubulin; 2 µM tubulin, PEM buffer pH 6.8, 37 °C, 45 min, mean ± S.D.) [µM] | Experimental ΔGbind (tubulin; calculated from KD, ΔGbind = RT ln KD, T = 298 K) [kcal/mol] | IC50 [2] [µM] | IC50 [3] [µM] | IC50 [4] [µM] | melting point [°C] | SMILES | IC50 [1] [µM] | Cell cycle parameters % G0/G1, 24 hours (MCF-7 cells) [%] | Cell cycle parameters % G2/M, 24 hours (MCF-7 cells) [%] | Cell cycle parameters % S, 24 hours (MCF-7 cells) [%] | Cell cycle parameters % Sub-G1, 24 hours (MCF-7 cells) [%] | Cell cycle parameters % G0/G1, 72 hours (MCF-7 cells) [%] | Cell cycle parameters % G2/M, 72 hours (MCF-7 cells) [%] | Cell cycle parameters % S, 72 hours (MCF-7 cells) [%] | Cell cycle parameters % Sub-G1, 72 hours (MCF-7 cells) [%]
68 ± 0.7 | -5.691 | 33.6 ± 1.3 | 41.6 ± 2.1 | 20.9 ± 1.8 |  | COc1ccc2c(c1OC)C(=O)O[C@@H]2[C@@H]1NCCc2cc3c(c(OC)c21)OCO3 [Compound 5a, (S)-6,7-dimethoxy-3-((R)-4-methoxy-5,6,7,8-tetrahydro[1,3]dioxolo[4,5-g]isoquinolin-5-yl)isobenzofuran-1(3H)-one] | 8.9 ± 0.6 | 13.47 | 66.37 | 4.08 | 8.46 | 10.74 | 39.25 | 7.08 | 41.57
 |  | 31.2 ± 1.5 | 37.7 ± 1.8 | 19.4 ± 1.4 | 64 | COc1ccc2c(c1OC)C(=O)O[C@@H]2[C@H]1c2c(cc3c(c2OC)OCO3)CCN1Cc1ccccc1 [Compound 6a, (S)-3-((R)-6-benzyl-4-methoxy-5,6,7,8-tetrahydro-[1,3]dioxolo[4,5-g]isoquinolin-5-yl)-6,7-dimethoxyisobenzofuran-1(3H)-one] | 8.3 ± 0.4 | 16.28 | 63.18 | 4.94 | 8.12 | 9.06 | 37.72 | 7.39 | 44.82
